Measurements taken from article PMC6801739, “Antitumor Activity of a Novel Tyrosine Kinase Inhibitor AIU2001 Due to Abrogation of the DNA Damage Repair in Non-Small Cell Lung Cancer Cells” (International Journal of Molecular Sciences, 2019).

What was measured:
WEE1 = target: T1, WEE1 (Homo sapiens, UniProt P30291); test: Kinase profiling at 10 μM (Eurofins); format: biochemical; details: read-out: Inhibitory activity
T1 construct: purchased Eurofins Pharma Discovery (KinaseProfiler); IC50 values by Reaction Biology Corp
T1 sequence (P30291 whole entry): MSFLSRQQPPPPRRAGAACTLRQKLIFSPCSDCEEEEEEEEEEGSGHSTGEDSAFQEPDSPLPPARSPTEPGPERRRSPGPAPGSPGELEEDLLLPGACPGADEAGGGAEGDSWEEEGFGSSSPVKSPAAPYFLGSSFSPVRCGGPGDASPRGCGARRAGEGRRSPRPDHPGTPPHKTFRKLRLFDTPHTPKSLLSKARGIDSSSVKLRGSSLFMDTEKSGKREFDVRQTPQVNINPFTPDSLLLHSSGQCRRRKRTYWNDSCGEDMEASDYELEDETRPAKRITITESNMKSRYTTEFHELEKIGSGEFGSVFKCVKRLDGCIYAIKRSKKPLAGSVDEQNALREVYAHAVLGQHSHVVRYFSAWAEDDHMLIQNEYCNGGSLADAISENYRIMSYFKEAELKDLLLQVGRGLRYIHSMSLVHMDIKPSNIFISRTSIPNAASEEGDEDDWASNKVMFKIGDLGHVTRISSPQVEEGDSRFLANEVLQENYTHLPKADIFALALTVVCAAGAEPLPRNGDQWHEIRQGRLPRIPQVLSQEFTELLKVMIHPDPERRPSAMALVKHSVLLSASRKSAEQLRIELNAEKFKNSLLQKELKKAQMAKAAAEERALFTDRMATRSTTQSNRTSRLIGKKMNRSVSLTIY

MV4-11 cells = test: CCK-8 cell viability assay; format: cell-based, human; details: CCK-8, 5 days
Protocol: (§1) Supplementary Figure 1. AIU2001 inhibited the proliferation of various cancer cells. (A and B) Human AML cells (Molm-13 and MV4-11; A) and human colorectal cancer (CRC) cells (HCT116/p53+/+ and HCT116/p53-/-; B) were treated with AIU2001 at the indicated concentrations for 5 days and viable cells were evaluated using the CCK-8 assay for AML cells and the MTT assay for CRC cells. *p < 0.05, **p < 0.01, ***p < 0.001 versus respective vehicle controls.
(§2) (also on this page, place not known: ca ncer fo r 02468 Cell viability (%) 0 1 Cell viability (%) *** *** ***) […]
(§3) Cell viability. Cytotoxicity assay of AML cells was performed using cell counting kit-8 (CCD-8; Dojindo, Japan) according to the manufacturer’s procedure. Briefly, MV4-11 or Molm-13 cells were plated in 96-well plates at a density of […] or 1 × 10^3 cells/well in triplicate, treated with AIU2001 or DMSO, and then incubated for 5 days. After adding the CCK-8 solution (10 μl) to each well and incubating the plates for 3 h, absorbance at 450 nm was measured using a microplate reader

Molm-13 cells = test: CCK-8 cell viability assay; format: cell-based, human; details: CCK-8, 5 days
Protocol: as §1, §2, §3

PDGFRα(D842V) = target: T2, PDGFRα(D842V) (Homo sapiens, UniProt P16234, D842V); test: Kinase profiling at 10 μM (Eurofins); format: biochemical; details: read-out: Inhibitory activity
T2 construct: purchased Eurofins Pharma Discovery (KinaseProfiler); IC50 values by Reaction Biology Corp

FLT1 = target: T3, FLT1 (Homo sapiens, UniProt P17948); test: Kinase profiling at 10 μM (Eurofins); format: biochemical; details: read-out: Inhibitory activity
T3 construct: purchased Eurofins Pharma Discovery (KinaseProfiler); IC50 values by Reaction Biology Corp
T3 sequence (P17948 27-1338): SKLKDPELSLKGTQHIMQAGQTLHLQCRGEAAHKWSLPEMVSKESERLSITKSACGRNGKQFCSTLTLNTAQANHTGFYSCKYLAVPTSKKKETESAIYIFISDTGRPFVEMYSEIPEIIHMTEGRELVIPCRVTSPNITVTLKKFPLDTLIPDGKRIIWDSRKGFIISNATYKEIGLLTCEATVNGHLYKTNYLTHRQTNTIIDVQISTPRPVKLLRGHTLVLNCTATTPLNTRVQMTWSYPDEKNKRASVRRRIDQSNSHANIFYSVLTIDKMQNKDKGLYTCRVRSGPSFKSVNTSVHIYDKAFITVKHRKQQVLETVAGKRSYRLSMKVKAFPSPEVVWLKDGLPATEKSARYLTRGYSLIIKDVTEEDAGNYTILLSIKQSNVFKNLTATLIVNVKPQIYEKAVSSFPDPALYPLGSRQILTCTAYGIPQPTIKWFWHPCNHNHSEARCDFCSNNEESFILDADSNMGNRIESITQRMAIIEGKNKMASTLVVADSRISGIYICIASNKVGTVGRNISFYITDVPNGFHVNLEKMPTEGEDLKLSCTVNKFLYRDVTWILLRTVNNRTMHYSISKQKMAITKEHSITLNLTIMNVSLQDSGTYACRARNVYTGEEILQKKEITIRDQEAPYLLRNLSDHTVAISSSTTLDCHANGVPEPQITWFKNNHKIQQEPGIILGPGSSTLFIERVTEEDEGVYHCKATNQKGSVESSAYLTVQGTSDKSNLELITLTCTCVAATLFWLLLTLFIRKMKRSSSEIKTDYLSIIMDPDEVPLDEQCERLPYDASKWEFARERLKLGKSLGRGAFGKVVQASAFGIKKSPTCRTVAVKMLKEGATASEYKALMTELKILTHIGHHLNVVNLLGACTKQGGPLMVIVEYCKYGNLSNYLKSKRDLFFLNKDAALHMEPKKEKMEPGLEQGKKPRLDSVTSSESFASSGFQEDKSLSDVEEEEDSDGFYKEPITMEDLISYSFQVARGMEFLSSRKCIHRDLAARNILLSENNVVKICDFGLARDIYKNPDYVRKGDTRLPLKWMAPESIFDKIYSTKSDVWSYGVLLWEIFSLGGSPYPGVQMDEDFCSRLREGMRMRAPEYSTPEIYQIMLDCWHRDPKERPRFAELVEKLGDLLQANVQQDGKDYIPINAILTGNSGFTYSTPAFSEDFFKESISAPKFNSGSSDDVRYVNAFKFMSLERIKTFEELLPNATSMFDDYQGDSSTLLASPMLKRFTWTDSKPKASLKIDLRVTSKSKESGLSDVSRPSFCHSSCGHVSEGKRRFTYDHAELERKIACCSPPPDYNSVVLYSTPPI

H1299 cells [1] = test: Clonogenic survival assay with γ-radiation; format: cell-based, human
Protocol: (§4) Cells were seeded on 60-mm culture dishes at various densities and then treated with DMSO or 2 μM AIU2001. After 2 h, the cells were treated with the indicated doses of ^137Cs γ-radiation. After 10 days, the colonies were fixed and stained with 1.5% methylene blue (Sigma Aldrich) in methanol solution. Colonies containing > 50 cells were counted. The dose enhancement ratio (DER) was calculated as the dose (Gy) of radiation that yielded a surviving fraction of 0.1 for DMSO-treated cells divided by that dose for AIU2001-treated cells. The experiment was performed in triplicate.

A549 cells [2] = test: Clonogenic survival assay with γ-radiation; format: cell-based, human
Protocol: as §4

H1299 cells [3] = test: Immunoblot of cell cycle checkpoint proteins; format: cell-based, human; details: 5 μM, 6 h or 24 h
Protocol: (§5) Cell lysates were prepared by extracting proteins with TNN buffer (40 mM Tris-Cl pH 8.0, 0.2% NP-40, 120 mM NaCl) or radioimmunoprecipitation assay (RIPA) lysis buffer (Millipore, Billerica MA, USA) supplemented with a protease inhibitor cocktail (Thermo Fisher Scientific, Rockford, IL, USA). Equal amounts of proteins were separated using SDS-PAGE on 8–13% gels, and transferred to nitrocellulose membranes (Bio-Rad, Hercules, CA, USA). The membranes were blocked with 5% skim milk in Tris-buffered saline-Tween 20 (TBST) (150 mM NaCl, 10 mM Tris, 0.2% Tween20), followed by overnight incubation with primary antibodies at 4 °C. The blots were developed using peroxidase-conjugated secondary antibody and the immunoreactive proteins were visualized using enhanced chemiluminescence (ECL) reagents, according to the manufacturer’s recommendations (Amersham, GE Healthcare, Buckingamshire, UK). The protein bands were visualized using a digital imaging system (ImageQuant LAS 4000 mini; GE Healthcare, UK). The protein levels were analyzed using Image J software (National Institutes of Health, Bethesda, MD, USA). Experiments were repeated at least thrice.

A549 cells [4] = test: Immunoblot of cell cycle checkpoint proteins; format: cell-based, human; details: 5 μM
Protocol: as §5

Aurora-A = target: T4, Aurora-A (Homo sapiens, UniProt O14965); test: Kinase profiling at 10 μM (Eurofins); format: biochemical; details: read-out: Inhibitory activity
T4 construct: purchased Eurofins Pharma Discovery (KinaseProfiler); IC50 values by Reaction Biology Corp
T4 sequence (O14965 whole entry): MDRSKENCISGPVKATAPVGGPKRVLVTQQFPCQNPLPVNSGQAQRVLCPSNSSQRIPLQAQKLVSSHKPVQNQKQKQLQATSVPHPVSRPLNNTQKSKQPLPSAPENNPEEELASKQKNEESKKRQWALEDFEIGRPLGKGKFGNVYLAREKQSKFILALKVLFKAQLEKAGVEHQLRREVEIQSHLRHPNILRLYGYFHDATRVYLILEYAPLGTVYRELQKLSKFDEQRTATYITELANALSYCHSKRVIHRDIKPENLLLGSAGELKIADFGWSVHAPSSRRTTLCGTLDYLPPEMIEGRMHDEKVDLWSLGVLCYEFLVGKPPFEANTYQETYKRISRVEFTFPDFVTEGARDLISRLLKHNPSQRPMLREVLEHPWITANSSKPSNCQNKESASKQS

H1299 cells [5] = test: qPCR of DNA damage repair genes and STAT5 mRNA; format: cell-based, human; details: 24 h
From the text: (§6) RNA was extracted using TRIzol® RNA isolation reagent (ThermoFisher Scientific). RNA was reverse-transcribed into cDNA using the M-MLV reverse transcriptase (Enzynomics, Daejeon, Korea) and RNase inhibitor (Promega, Madison, WI, USA). The sequence of the primers targeting human BRCA1, BRCA2, RAD51, BARD1, XRCC6, and XRCC5 are as follows: BRCA1 sense 5′-[…]-3′, BRCA1 antisense 5′-[…]-3′, BRCA2 sense 5′-[…]-3′, BRCA2 antisense 5′-[…]-3′, RAD51 sense 5′-[…]-3′, RAD51 antisense 5′-[…]-3′, BARD1 sense 5′-[…]-3′, BARD1 antisense 5′-[…]-3′, XRCC6 sense 5′-[…]-3′, XRCC6 antisense 5′-[…]-3′, XRCC5 sense 5′-[…]-3′,and XRCC5 antisense 5′-[…]-3′. β-actin was used as a housekeeping gene for normalization. The cDNA was quantified using real-time PCR with SYBR Green/fluorescein qPCR master mix (ThermoScientific, Carlsbad, CA, USA) on a Lightcycler 96 system (Roche Diagnostics, Mannheim, Germany) according to the manufacturer’s protocol.

A549 cells [6] = test: qPCR of DNA damage repair genes and STAT5 mRNA; format: cell-based, human; details: 24 h
From the text: as §6

EGFR = target: T5, EGFR (Homo sapiens, UniProt P00533); test: Kinase profiling at 10 μM (Eurofins); format: biochemical; details: read-out: Inhibitory activity
T5 construct: purchased Eurofins Pharma Discovery (KinaseProfiler); IC50 values by Reaction Biology Corp

EGFR(T790M,L858R) = target: T6, EGFR(T790M,L858R) (Homo sapiens, UniProt P00533, L858R/T790M); test: Kinase profiling at 10 μM (Eurofins); format: biochemical; details: read-out: Inhibitory activity
T6 construct: purchased Eurofins Pharma Discovery (KinaseProfiler); IC50 values by Reaction Biology Corp
T6 sequence (P00533 25-1210 T790M/L858R): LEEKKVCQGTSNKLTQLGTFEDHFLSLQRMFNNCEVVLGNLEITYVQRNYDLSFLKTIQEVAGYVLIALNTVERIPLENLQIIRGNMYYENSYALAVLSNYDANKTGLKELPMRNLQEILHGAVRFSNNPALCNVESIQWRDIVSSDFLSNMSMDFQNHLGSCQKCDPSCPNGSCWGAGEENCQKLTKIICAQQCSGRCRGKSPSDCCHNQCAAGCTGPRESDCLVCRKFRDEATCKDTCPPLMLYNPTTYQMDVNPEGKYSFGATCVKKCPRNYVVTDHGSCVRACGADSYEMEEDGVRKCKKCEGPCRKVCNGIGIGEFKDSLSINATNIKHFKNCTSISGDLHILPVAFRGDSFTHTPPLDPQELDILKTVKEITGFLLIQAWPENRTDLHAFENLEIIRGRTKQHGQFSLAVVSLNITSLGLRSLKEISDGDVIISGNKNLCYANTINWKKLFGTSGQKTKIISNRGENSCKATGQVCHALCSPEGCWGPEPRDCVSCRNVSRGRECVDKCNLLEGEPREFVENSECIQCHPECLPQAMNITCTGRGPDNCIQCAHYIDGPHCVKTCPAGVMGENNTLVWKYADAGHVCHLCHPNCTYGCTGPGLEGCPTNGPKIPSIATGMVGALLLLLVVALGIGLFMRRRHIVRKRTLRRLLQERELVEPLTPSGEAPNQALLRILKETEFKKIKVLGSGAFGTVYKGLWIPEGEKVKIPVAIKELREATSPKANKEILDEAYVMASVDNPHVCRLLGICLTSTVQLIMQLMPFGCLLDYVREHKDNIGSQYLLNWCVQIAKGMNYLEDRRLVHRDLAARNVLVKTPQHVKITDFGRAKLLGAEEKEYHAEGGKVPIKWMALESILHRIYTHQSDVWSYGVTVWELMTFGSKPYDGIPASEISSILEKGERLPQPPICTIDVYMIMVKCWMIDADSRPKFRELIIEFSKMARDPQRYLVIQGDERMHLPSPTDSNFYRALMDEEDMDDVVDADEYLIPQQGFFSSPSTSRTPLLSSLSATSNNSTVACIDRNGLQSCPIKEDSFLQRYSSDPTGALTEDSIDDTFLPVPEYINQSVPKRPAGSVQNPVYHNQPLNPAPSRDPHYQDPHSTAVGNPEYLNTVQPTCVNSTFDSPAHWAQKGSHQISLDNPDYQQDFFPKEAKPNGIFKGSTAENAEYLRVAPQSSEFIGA

FLT3(D835Y) = FLT3(D835Y) (Homo sapiens, UniProt P36888, D835Y); test: Kinase profiling at 10 μM (Eurofins); format: biochemical; set-up: purchased Eurofins Pharma Discovery (KinaseProfiler); IC50 values by Reaction Biology Corp; details: read-out: Inhibitory activity
FAK = target: T7, FAK (Homo sapiens, UniProt Q05397); test: Kinase profiling at 10 μM (Eurofins); format: biochemical; details: read-out: Inhibitory activity
T7 construct: purchased Eurofins Pharma Discovery (KinaseProfiler); IC50 values by Reaction Biology Corp
T7 sequence (Q05397 whole entry): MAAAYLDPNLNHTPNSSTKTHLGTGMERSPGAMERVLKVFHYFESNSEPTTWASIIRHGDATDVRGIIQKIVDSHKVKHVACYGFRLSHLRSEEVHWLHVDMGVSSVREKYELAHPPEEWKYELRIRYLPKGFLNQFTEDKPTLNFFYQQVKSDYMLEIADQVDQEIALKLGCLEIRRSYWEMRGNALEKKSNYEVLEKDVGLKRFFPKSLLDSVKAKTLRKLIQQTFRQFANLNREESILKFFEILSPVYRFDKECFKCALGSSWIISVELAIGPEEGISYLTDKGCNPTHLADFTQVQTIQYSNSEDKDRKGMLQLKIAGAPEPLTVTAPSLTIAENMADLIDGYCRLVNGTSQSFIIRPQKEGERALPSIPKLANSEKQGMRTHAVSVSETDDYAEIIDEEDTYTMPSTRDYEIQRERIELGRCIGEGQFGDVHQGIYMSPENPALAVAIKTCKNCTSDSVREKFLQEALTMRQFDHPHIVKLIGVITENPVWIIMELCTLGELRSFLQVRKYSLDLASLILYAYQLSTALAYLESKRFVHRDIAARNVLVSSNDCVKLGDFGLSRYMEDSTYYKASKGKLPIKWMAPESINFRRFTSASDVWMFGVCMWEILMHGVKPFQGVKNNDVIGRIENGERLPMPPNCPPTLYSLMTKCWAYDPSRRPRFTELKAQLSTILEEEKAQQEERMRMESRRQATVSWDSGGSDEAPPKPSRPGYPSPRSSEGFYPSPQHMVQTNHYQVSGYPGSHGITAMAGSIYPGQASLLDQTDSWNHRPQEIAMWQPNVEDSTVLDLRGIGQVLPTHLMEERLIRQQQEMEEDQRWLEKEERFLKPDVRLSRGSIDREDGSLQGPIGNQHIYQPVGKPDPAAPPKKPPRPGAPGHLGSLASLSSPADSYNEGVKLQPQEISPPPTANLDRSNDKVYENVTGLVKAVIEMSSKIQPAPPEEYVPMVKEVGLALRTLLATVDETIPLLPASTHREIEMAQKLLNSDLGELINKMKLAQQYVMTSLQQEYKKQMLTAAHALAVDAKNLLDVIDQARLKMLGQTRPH

Brc1ccc(-c2cnc(Nc3cccc4ccccc34)o2)cc1 [AIU2001, 5-(4-bromophenyl)-N-(naphthalen-1-yl) oxazol-2-amine]
inhibition at 10 µM (WEE1): 8%
Growth inhibition (MV4-11 cells): inhibited the growth
Growth inhibition (Molm-13 cells): inhibited the growth
inhibition at 10 µM (PDGFRα(D842V)): 23%
inhibition at 10 µM (FLT1): 44%
Dose enhancement ratio (DER) at surviving fraction of 0.1 over DMSO-treated cells (H1299 cells [1]; 2 μM, 2 h before IR, 10 days): 1.15
Radiosensitivity (H1299 cells [1]; clonogenic survival): radiosensitized
Dose enhancement ratio (DER) at surviving fraction of 0.1 over DMSO-treated cells (A549 cells [2]; 2 μM, 2 h before IR, 10 days): 1.33
Radiosensitivity (A549 cells [2]; clonogenic survival): radiosensitized
CDC25C level (H1299 cells [3]): decrease
Cyclin B1 level (H1299 cells [3]): significant increase
Phosphorylated histone H3 level (H1299 cells [3]): significant increase
Phosphorylation of CHK1 at Ser345 (H1299 cells [3]): increased the phosphorylation
Phosphorylation of CHK2 at Thr68 (H1299 cells [3]): increased the phosphorylation
Expression of p21 (A549 cells [4]; A549 (p53 wild-type)): increased in A549 cells
Expression of phosphorylated p53 (A549 cells [4]; A549 (p53 wild-type)): increased in A549 cells
CDC25C level (A549 cells [4]; A549, 6 h or 24 h): decrease
Cyclin B1 level (A549 cells [4]; A549, 6 h or 24 h): significant increase
Phosphorylated histone H3 level (A549 cells [4]; A549, 6 h or 24 h): significant increase
Phosphorylation of CHK1 at Ser345 (A549 cells [4]; A549, 6 h or 24 h): increased the phosphorylation
Phosphorylation of CHK2 at Thr68 (A549 cells [4]; A549, 6 h or 24 h): increased the phosphorylation
inhibition at 10 µM (Aurora-A): 28%
Expression level of STAT5 mRNA (H1299 cells [5]): downregulated
mRNA levels of HR (BRCA1, BRCA2, BARD1, RAD51) and NHEJ (XRCC5, XRCC6) genes (H1299 cells [5]): reduced the mRNA levels
Expression level of STAT5 mRNA (A549 cells [6]): downregulated
mRNA levels of HR (BRCA1, BRCA2, BARD1, RAD51) and NHEJ (XRCC5, XRCC6) genes (A549 cells [6]): reduced the mRNA levels
inhibition at 10 µM (EGFR): 10%
inhibition at 10 µM (EGFR(T790M,L858R)): 4%
inhibition at 10 µM (FLT3(D835Y)): ≥ 75%
inhibition at 10 µM (FAK): 16%
